Data on 13 molecules can be found in patent publication US9981942B2, “Piperidine derivatives having multimodal activity against pain” (LABORATORIOS DEL DR. ESTEVE S.A., priority 2013, dated 2018).

The first test deals with σ1 receptor and the μ-opiod receptor. Nature of the test: μ and σ1 dual binding: combined class from the Ki of both radioligand assays. Details: species or system human; key to μ and σ1 dual binding: +: Both Ki-μ and Ki-σ1>=500 nM; ++: One Ki<500 nM while the other Ki is >=500 nM; +++: Both Ki-μ and Ki-σ1<500 nM; ++++: Both Ki-μ and Ki-σ1<100 nM. To be noted: combined class for Ki-μ and Ki-σ1; transfected HEK-293 membranes (σ1), transfected CHO-K1 cell membranes (μ). The method, boiled down:
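Classes combine both Ki values, split at 500 nM and 100 nM. Human μ-opioid binding used 1 nM [3H]-DAMGO on CHO-K1 membranes (27 °C, 60 min, pH 7.4, naloxone 10 μM for NSB); human σ1 used 5 nM [3H](+)-pentazocine on HEK-293 membranes (37 °C, 120 min, pH 8, haloperidol 10 μM for NSB).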
`CCS(=O)(=O)Nc1cccc(C2CCN(Cc3cn(Cc4ccccn4)nn3)CC2)c1` [Example 112, N-(3-(1-((1-(pyridin-2-ylmethyl)-1H-1,2,3-triazol-4-yl)methyl)piperidin-4-yl)phenyl)ethanesulfonamide]: the “μ and σ1 dual binding” value is “++”.

In the case of `CC(C)S(=O)(=O)Nc1cccc(C2CCN(Cc3cn(Cc4cccc(C(F)(F)F)n4)nn3)CC2)c1` [Example 117, N-(3-(1-((1-((6-(trifluoromethyl)pyridin-2-yl)methyl)-1H-1,2,3-triazol-4-yl)methyl)piperidin-4-yl)phenyl)propane-2-sulfonamide], the “μ and σ1 dual binding” value is listed as “++”.

On to `Cc1cccc(Cn2cc(CN3CCC(c4cccc(NS(=O)(=O)C(C)C)c4)CC3)nn2)n1` [Example 118, N-(3-(1-((1-((6-methylpyridin-2-yl)methyl)-1H-1,2,3-triazol-4-yl)methyl)piperidin-4-yl)phenyl)propane-2-sulfonamide], for which the “μ and σ1 dual binding” value is “++”.

For `CS(=O)(=O)Nc1cccc(C2CCN(Cc3nnn4c3-c3ccccc3C4)CC2)c1` [Example 119, N-(3-(1-((8H-[1,2,3]triazolo[5,1-a]isoindol-3-yl)methyl)piperidin-4-yl)phenyl)methanesulfonamide], the “μ and σ1 dual binding” value is listed as “++”.

Take `Oc1cccc(C2CCN(Cc3nnn4c3-c3ccccc3C4)CC2)c1` [Example 120, 3-(1-((8H-[1,2,3]triazolo[5,1-a]isoindol-3-yl)methyl)piperidin-4-yl)phenol]: the “μ and σ1 dual binding” value is reported as “++”.

`CC(C)S(=O)(=O)Nc1cccc(C2CCN(Cc3cn(Cc4ncccc4C(F)(F)F)nn3)CC2)c1` [Example 121, N-(3-(1-((1-((3-(trifluoromethyl)pyridin-2-yl)methyl)-1H-1,2,3-triazol-4-yl)methyl)piperidin-4-yl)phenyl)propane-2-sulfonamide]: the “μ and σ1 dual binding” value is given as “++”.

As for `CC(C)S(=O)(=O)Nc1cccc(C2CCN(Cc3cn(Cc4ccc(C(F)(F)F)cn4)nn3)CC2)c1` [Example 122, N-(3-(1-((1-((5-(trifluoromethyl)pyridin-2-yl)methyl)-1H-1,2,3-triazol-4-yl)methyl)piperidin-4-yl)phenyl)propane-2-sulfonamide], the “μ and σ1 dual binding” value is listed as “++”.

In the case of `CC(C)S(=O)(=O)Nc1cccc([C@@H]2CCN(Cc3cn(Cc4ccccc4)nn3)C[C@@H]2O)c1` [Example 123, N-(3-((3R,4S)-1-((1-benzyl-1H-1,2,3-triazol-4-yl)methyl)-3-hydroxypiperidin-4-yl)phenyl)propane-2-sulfonamide], the “μ and σ1 dual binding” value is “++”.

`CC(C)S(=O)(=O)Nc1cccc(C2CCN(Cc3cn(Cc4ccc(C(F)(F)F)nc4)nn3)CC2)c1` [Example 124, N-(3-(1-((1-((6-(trifluoromethyl)pyridin-3-yl)methyl)-1H-1,2,3-triazol-4-yl)methyl)piperidin-4-yl)phenyl)propane-2-sulfonamide]: the “μ and σ1 dual binding” value is given as “++”.

Staying with this test, now noted: transfected HEK-293 membranes (σ1), transfected CHO-K1 cell membranes (μ).
As for `CCNC(=O)Nc1cccc(C2CCN(Cc3cn(Cc4ccccn4)nn3)CC2)c1` [Example 111, 1-ethyl-3-(3-(1-((1-(pyridin-2-ylmethyl)-1H-1,2,3-triazol-4-yl)methyl)piperidin-4-yl)phenyl)urea], the Ki range for both μ and σ1 (dual-binding class) was no less than 500 nM.

For `COc1cccc(Cn2cc(CN3CCC(c4cccc(NS(=O)(=O)C(C)C)c4)CC3)nn2)n1` [Example 113], the Ki range for both μ and σ1 (dual-binding class) is less than 100 nM.

For `CC(C)S(=O)(=O)Nc1cccc(C2CCN(Cc3cn(Cc4ncccc4F)nn3)CC2)c1` [Example 114, N-(3-(1-((1-((3-fluoropyridin-2-yl)methyl)-1H-1,2,3-triazol-4-yl)methyl)piperidin-4-yl)phenyl)propane-2-sulfonamide], the Ki range for both μ and σ1 (dual-binding class) was less than 500 nM.

Regarding `CC(C)S(=O)(=O)Nc1cccc(C2CCN(Cc3cn(Cc4cccc(F)n4)nn3)CC2)c1` [Example 116, N-(3-(1-((1-((6-fluoropyridin-2-yl)methyl)-1H-1,2,3-triazol-4-yl)methyl)piperidin-4-yl)phenyl)propane-2-sulfonamide], the Ki range for both μ and σ1 (dual-binding class) was less than 500 nM.
